Reference: patent US20020095695A1, “Tillering promoter for plant and method for tillering promotion of plant” (AJINOMOTO CO., INC., priority 2000, published 2002)

Assays:
Format in all cases: in vivo
[1] = system: grass (a European grass: bent grass); assay: Effects of proline, glutamine, arginine and urea on hydroponic cultivation of grass; conditions: for Average leaf length / Average root length / Number of leaves per one root / Number of tillering per one root / Total weight of living plants per five roots / number of leaves and total weight of the living plant, in words: 40th day; for Average leaf length / Average root length / Number of leaves per one root / Number of tillering per one root / Total weight of living plants per five roots: 5 roots per group, proline 20 ppm, others at the same nitrogen amount; for number of leaves and total weight of the living plant, in words: five average stocks per group
Protocol: Seedlings of grass (a European grass: bent grass) were raised and divided into five groups of A to E, and hydroponic cultivation was carried out (Table 2 shown below). Group A was the control. Concerning Group B, proline was applied onto leaf surfaces once a week in an amount of 20 ppm.
(§1) Furthermore, five average stocks which had not been withered were sampled from each group and examined.

[2] = system: grass (a European grass: bent grass); assay: Effect of proline on hydroponic cultivation of grass (2), proline concentration changed stepwise; conditions: 40th day
Protocol: Seedlings of grass (a European grass: bent grass) were raised and divided into six groups of A to F, and hydroponic cultivation was carried out (Table 3 shown below). At that time, inosine was added to the hydroponic media for all the groups in such amount that the concentration became 2 ppm in each hydroponic medium. Group A was the control. In the groups of B to F, proline was applied onto leaf surfaces once a week with the concentration being changed stepwise.
as §1

[3] = system: lawn grass (a European grass; bent grass); assay: Effect of proline on hydroponic cultivation of lawn grass (1); conditions: for Average leaf length / Average root length / Number of leaves per one root / Number of tillering per one root / Total weight of living plants per five roots: 5 roots per group, inosine 2 ppm in hydroponic medium, proline 20 ppm onto leaf surfaces once a week; for tillering promotion (observation): confirmation on the 40th day, inosine 2 ppm in medium, proline 20 ppm foliar once a week
Protocol: Seedlings of grass (a European grass; bent grass) were raised and divided into four groups of A to D, and hydroponic cultivation was carried out (Table 1 shown below). Concerning Groups B and D, inosine was added to each hydroponic medium in such amount that the concentration became 2 ppm. Concerning Groups C and D, proline was applied onto leaf surfaces once a week in an amount of 20 ppm. Group A was the control. […] Furthermore, five average stocks which had not been withered were sampled from each group and examined.

[4] = 0.2% proline foliar once a week, inosine 2 ppm in hydroponic medium
[5] = 2.0% proline foliar once a week, inosine 2 ppm in hydroponic medium
[6] = 20 ppm proline foliar once a week, inosine 2 ppm in hydroponic medium
[7] = 200 ppm proline foliar once a week, inosine 2 ppm in hydroponic medium
[8] = group B, 2 ppm, inosine 2 ppm in hydroponic medium of all groups, foliar once a week

## NC(N)=O [Urea, urea, reference compound]
[1]; foliar once a week
  Average leaf length: 15 cm
  Average root length: 2 cm
  Number of leaves per one root: 6
  Number of tillering per one root: 1
  Total weight of living plants per five roots: 0.34 g
[1]; confirmation on the 40th day, foliar once a week, nitrogen amount equal to 20 ppm proline
  tillering promotion (observation): no tillering promotion was observed

## O=C(O)[C@@H]1CCCN1 [Proline, proline]
[1]; foliar once a week
  Average leaf length: 14 cm
  Average root length: 2 cm
  Number of leaves per one root: 17
  Number of tillering per one root: 5
  Total weight of living plants per five roots: 0.60 g
[1]
  number of leaves and total weight of the living plant, in words: good results
[2]; [4]
  Average leaf length: 23 cm
  Average root length: 5 cm
  Number of leaves per one root: 14
  Number of tillering per one root: 3
  Total weight of living plants per five roots: 0.90 g
[2]; [5]
  Average leaf length: 19 cm
  Average root length: 3 cm
  Number of leaves per one root: 11
  Number of tillering per one root: 3
  Total weight of living plants per five roots: 0.40 g
[2]; [6]
  Average leaf length: 24 cm
  Average root length: 4 cm
  Number of leaves per one root: 15
  Number of tillering per one root: 4
  Total weight of living plants per five roots: 0.95 g
[2]; [7]
  Average leaf length: 24 cm
  Average root length: 5 cm
  Number of leaves per one root: 24
  Number of tillering per one root: 4
  Total weight of living plants per five roots: 1.01 g
[2]; Group F (2.0% proline foliar once a week), inosine 2 ppm in medium
  inhibition of the growth or withering (observation): inhibition of the growth or withering was observed
[2]; proline at a concentration of 2 ppm to 0.2%, inosine 2 ppm in medium
  number of leaves and total weight of the living plant, in words: good results
[3]; 40th day
  Average leaf length: 22 cm
  Average root length: 1 cm
  Number of leaves per one root: 16
  Number of tillering per one root: 5
  Total weight of living plants per five roots: 0.53 g
[3]; 40th day, five average stocks per group
  growth (root length, leaf length and number, total weight of the living plant, tillering number), in words: good growth
[3]
  tillering promotion (observation): tillering promotion was clearly observed

## OC[C@H]1O[C@@H](n2cnc3c(O)ncnc32)[C@H](O)[C@@H]1O [Inosine, inosine]
[2]; [8]
  Average leaf length: 24 cm
  Average root length: 4 cm
  Number of leaves per one root: 14
  Number of tillering per one root: 3
  Total weight of living plants per five roots: 1.04 g
[3]; 40th day
  Average leaf length: 20 cm
  Average root length: 2 cm
  Number of leaves per one root: 7
  Number of tillering per one root: 2
  Total weight of living plants per five roots: 0.40 g
[3]
  tillering promotion (observation): no tillering promotion was observed

## NC(=O)CC[C@H](N)C(=O)O [Glutamine, glutamine]
[1]; foliar once a week
  Average leaf length: 18 cm
  Average root length: 2 cm
  Number of leaves per one root: 11
  Number of tillering per one root: 3
  Total weight of living plants per five roots: 0.66 g
[1]
  number of leaves and total weight of the living plant, in words: good results

## N=C(N)NCCC[C@H](N)C(=O)O [Arginine, arginine]
[1]; foliar once a week
  Average leaf length: 18 cm
  Average root length: 2 cm
  Number of leaves per one root: 9
  Number of tillering per one root: 3
  Total weight of living plants per five roots: 0.51 g
[1]
  number of leaves and total weight of the living plant, in words: good results
